Reference: patent US20150231077A1, “AMINE PASSIVATED NANOPARTICLES FOR CANCER TREATMENT AND IMAGING” (THE CLEVELAND CLINIC FOUNDATION, priority 2014, published 2015)
“Also recorded” adds a separate entry of the source.

Legend:
[1] = Formation and TEM size of amine-passivated Au nanoparticles; type: physicochemical; conditions: size of the Au nanoparticle formed with the named amine compound as ligand, same synthesis conditions
Protocol: In a typical synthesis of water soluble nanoparticles Au:MTX, 5 μmol of HAuCl4 and 25 μmol of MTX were dispersed with brief sonication in 2 mL methanol in a tri-neck 15 mL flask on ice water (0° C.) bath under Ar purge. After 1 hour of stirring at 700 rpm, 0.5 mL of freshly prepared 0.11 M NaBH4 on ice was added drop-wise at 1200 rpm. After ˜1 hour, stirring speed was reduced to 700 rpm and kept for additional ˜30 minutes.
The reacted solution was centrifuged at 4° C. at 16,100×g for 15 minutes twice, with the addition of 4:1 (volume) mixture of methanol and water, and ethanol respectively. This set of two step centrifugation was repeated at least 3 times, and then the precipitate was re-dispersed in water to obtain aqueous solutions. The aqueous solution was further purified using 3 k ultra centrifugal filter (Millipore, Billerica, Mass.). […]

[2] = system: human AML cell line THP-1; experiment: THP-1 growth curves (cell density and viability); type: cell-based; conditions: 1, 2 and 5 nM
Protocol: In order to evaluate the efficacy of Au:MTX in vitro, a human AML cell line THP-1 and human normal hematopoietic stem/progenitor cells (HSPCs) were used. HSPCs were isolated from umbilical cord blood via a CD34+ magnetic cell sorting (CD34 MicroBead Kit #130-046-702, Miltenyl Biotec, Auburn, Calif.). […] Cell density and viability were measured every 24 hours using the cell viability analyzer. […]
The inventors characterized Au:MTX as drug delivery vehicles and evaluated in vitro therapeutic effects. Au:MTX was purified via sets of centrifugal precipitations, and the Au-to-MTX molar ratio (drug loading onto Au nanoparticle) was measured by elemental analyses (carbon-hydrogen-nitrogen analysis, or CHN; and inductively coupled plasma mass spectrometry, or ICP-MS). […] Au-to-MTX molar ratio was determined as [Au]:[MTX]=9.8:1, i.e. one nanoparticle on average carried ˜75 MTX molecules (assuming ˜1.44 Å as atomic radius of Au and uniform surface coverage, as illustrated in FIG. 1(c)). […] Drug delivery by Au:MTX was evaluated using a human AML cell line THP-1. […] Au:FOL, with the diameter 2.6±1.1 nm measured by TEM, is structurally similar to Au:MTX and was therefore used as an “Au nanoparticle without active drug” control. […]

[3] = system: human normal hematopoietic stem/progenitor cells (HSPCs); experiment: Normal HSPC growth curves; type: cell-based; conditions: 1, 2 and 5 nM
Protocol: In order to evaluate the efficacy of Au:MTX in vitro, a human AML cell line THP-1 and human normal hematopoietic stem/progenitor cells (HSPCs) were used. HSPCs were isolated from umbilical cord blood via a CD34+ magnetic cell sorting (CD34 MicroBead Kit #130-046-702, Miltenyl Biotec, Auburn, Calif.). THP-1 cells were cultured in Roswell Park Memorial Institute 1640 (RPMI, Life Technologies, Carlsbad, Calif.) with 10% fetal bovine serum (FBS, Life Technologies), and HSPCs were cultured in Iscove's Modified Dulbecco's Medium (IMDM, Life Technologies) with 10% FBS and cytokines (10 ng/mL of SCF, TPO, and FLT3; 5 ng/mL of IL-3 and IL-6, PeproTech, Rockey Hill, N.J.), respectively, using 24-well cell culture plates with 0.7 mL of culture media per well (at 37° C. with 5% CO2 and >95% humidity). Cell viability was confirmed to be >95% using cell viability analyzer (Vi-Cell, Beckman Coulter, Brea, Calif.) immediately before the experiments. Then the cells were treated with phosphate buffer saline (PBS, Life Technologies), MTX, aqueous solutions of equimolar Au:MTX, and/or equimolar Au:FOL (folic acid-passivated Au nanoparticles). Cell cultures were split two-fold after 72 hours by replenishing each well with fresh media. Cell density and viability were measured every 24 hours using the cell viability analyzer. […]

Nc1ncnc2c1ncn2[C@@H]1O[C@H](CO)[C@@H](O)[C@H]1O [adenosine]
nanoparticle (formation of monolayer-protected Au nanoparticles) [1]: did not form

Nc1nc2c(ncn2[C@@H]2O[C@H](CO)[C@@H](O)[C@H]2O)c(=O)[nH]1 [guanosine]
nanoparticle (formation of monolayer-protected Au nanoparticles) [1]: 2.7 ± 1.6 nm

Nc1ccn([C@@H]2O[C@H](COP(=O)(O)OP(=O)(O)O)[C@@H](O)[C@H]2O)c(=O)n1 [cytidine diphosphate]
nanoparticle (formation of monolayer-protected Au nanoparticles) [1]: 2.5 ± 0.8 nm

Nc1ccn([C@H]2C[C@H](O)[C@@H](CO)O2)c(=O)n1 [deoxycytidine]
nanoparticle (formation of monolayer-protected Au nanoparticles) [1]: did not form

Nc1nc2c(ncn2[C@@H]2O[C@H](COP(=O)(O)OP(=O)(O)O)[C@@H](O)[C@H]2O)c(=O)[nH]1 [guanosine diphosphate]
nanoparticle (formation of monolayer-protected Au nanoparticles) [1]: 2.4 ± 1.0 nm

COc1cccc2c1C(=O)c1c(O)c3c(c(O)c1C2=O)C[C@@](O)(C(=O)CO)C[C@@H]3O[C@H]1C[C@H](N)[C@H](O)[C@H](C)O1 [doxorubicin, reference compound]
nanoparticle (formation of monolayer-protected Au nanoparticles) [1]: 3.3 ± 1.2 nm

Cc1ncc(C[n+]2csc(CCO)c2C)c(N)n1 [thiamine]
nanoparticle (formation of monolayer-protected Au nanoparticles) [1]: did not form

NCCc1ccc(O)c(O)c1 [dopamine, reference compound]
nanoparticle (formation of monolayer-protected Au nanoparticles) [1]: did not form

Nc1ncnc2c1ncn2[C@H]1C[C@H](O)[C@@H](CO)O1 [deoxyadenosine]
nanoparticle (formation of monolayer-protected Au nanoparticles) [1]: did not form

Nc1nc2c(ncn2[C@@H]2O[C@H](COP(=O)(O)OP(=O)(O)OP(=O)(O)O)[C@@H](O)[C@H]2O)c(=O)[nH]1 [guanosine triphosphate]
nanoparticle (formation of monolayer-protected Au nanoparticles) [1]: 2.3 ± 0.7 nm

COC(=O)CCC(NC(=O)c1ccc(N(C)Cc2cnc3nc(N)nc(N)c3n2)cc1)C(=O)OC (stereo not drawn) [methotrexate dimethyl ester]
nanoparticle (formation of monolayer-protected Au nanoparticles) [1]: 2.2 ± 0.6 nm

Nc1ncnc2c1ncn2[C@@H]1O[C@H](COP(=O)(O)OP(=O)(O)O)[C@@H](O)[C@H]1O [adenosine diphosphate]
nanoparticle (formation of monolayer-protected Au nanoparticles) [1]: 2.3 ± 0.7 nm

NCCCC[C@H](N)C(=O)O [lysine]
nanoparticle (formation of monolayer-protected Au nanoparticles) [1]: did not form

Cc1cc2nc3c(=O)[nH]c(=O)nc-3n(C[C@H](O)[C@H](O)[C@H](O)COP(=O)(O)OP(=O)(O)OC[C@H]3O[C@@H](n4cnc5c(N)ncnc54)[C@H](O)[C@@H]3O)c2cc1C [flavin adenine dinucleotide (FAD), flavin adenine dinucleotide]
nanoparticle (formation of monolayer-protected Au nanoparticles) [1]: 4.2 ± 1.6 nm

Nc1ncnc2c1ncn2[C@@H]1O[C@H](COP(=O)(O)O)[C@@H](O)[C@H]1O [adenosine monophosphate]
nanoparticle (formation of monolayer-protected Au nanoparticles) [1]: did not form

CN(Cc1cnc2nc(N)nc(N)c2n1)c1ccc(C(=O)N[C@@H](CCC(=O)O)C(=O)O)cc1 [MTX, methotrexate]
THP-1 cell growth [2]: dose-dependent THP-1 growth suppression | nanoparticle (formation of monolayer-protected Au nanoparticles) [1]: 2.6 ± 0.7 nm | HSPC growth [3]: not significantly affected; also recorded: does not significantly affect

[H]/N=C(/N)N[C@H]1[C@H](O)[C@@H](O)[C@H](O[C@@H]2O[C@@H](C)[C@](O)(C=O)[C@H]2O[C@@H]2O[C@@H](CO)[C@H](O)[C@@H](O)[C@@H]2NC)[C@@H](N/C(N)=N\[H])[C@@H]1O [streptomycin, reference compound]
nanoparticle (formation of monolayer-protected Au nanoparticles) [1]: 2.5 ± 1.2 nm

Nc1ccn([C@@H]2O[C@H](COP(=O)(O)OP(=O)(O)OP(=O)(O)O)[C@@H](O)[C@H]2O)c(=O)n1 [cytidine triphosphate]
nanoparticle (formation of monolayer-protected Au nanoparticles) [1]: 2.6 ± 0.9 nm

Cc1ncc(C[n+]2csc(CCOP(=O)(O)OP(=O)(O)O)c2C)c(N)n1 [thyamine pyrophosphate]
nanoparticle (formation of monolayer-protected Au nanoparticles) [1]: 3.1 ± 1.3 nm

Nc1ccn([C@@H]2O[C@H](COP(=O)(O)O)[C@@H](O)[C@H]2O)c(=O)n1 [cytidine monophosphate]
nanoparticle (formation of monolayer-protected Au nanoparticles) [1]: 4.5 ± 2.8 nm

Nc1nc2ncc(CNc3ccc(C(=O)N[C@@H](CCC(=O)O)C(=O)O)cc3)nc2c(=O)[nH]1 [folic acid]
nanoparticle (formation of monolayer-protected Au nanoparticles) [1]: 2.6 ± 1.1 nm

Nc1nc2c(ncn2[C@@H]2O[C@H](COP(=O)(O)O)[C@@H](O)[C@H]2O)c(=O)[nH]1 [guanosine monophosphate]
nanoparticle (formation of monolayer-protected Au nanoparticles) [1]: 2.6 ± 1.0 nm

Nc1nc2c(ncn2[C@H]2C[C@H](O)[C@@H](CO)O2)c(=O)[nH]1 [deoxyguanosine]
nanoparticle (formation of monolayer-protected Au nanoparticles) [1]: did not form

Nc1ncnc2c1ncn2[C@@H]1O[C@H](COP(=O)(O)OP(=O)(O)OP(=O)(O)O)[C@@H](O)[C@H]1O [adenosine triphosphate]
nanoparticle (formation of monolayer-protected Au nanoparticles) [1]: 2.1 ± 0.7 nm

CSCC[C@H](N)C(=O)O [methionine]
nanoparticle (formation of monolayer-protected Au nanoparticles) [1]: did not form
